Assay results from ChEMBL document CHEMBL1697781, “Assessment of the health effects of chemicals in humans: II. Construction of an adverse effects database for QSAR modeling” (Curr Drug Discov Technol, 2004).

Assays:
Details in all cases: human; call rule not given here
Hepatotoxicity [1] = assay: FDA HLAED, liver enzyme composite activity
Hepatotoxicity [2] = assay: FDA HLAED, alkaline phosphatase increase
Hepatotoxicity [3] = assay: FDA HLAED, serum glutamic oxaloacetic transaminase (SGOT) increase
Hepatotoxicity [4] = assay: FDA HLAED, serum glutamic pyruvic transaminase (SGPT) increase
Hepatotoxicity [5] = assay: FDA HLAED, lactate dehydrogenase (LDH) increase
Hepatotoxicity [6] = assay: FDA HLAED, gamma-glutamyl transferase (GGT) increase
Wherever GGT Increase - Index Value is given: reference of the scale not given here.
Wherever LDH Increase - Index Value is given: reference of the scale not given here.

SMILES | Composite Activity - Active (Hepatotoxicity [1]) | Composite Activity - Marginal (Hepatotoxicity [1]) | Composite Activity - Score (Hepatotoxicity [1]) | Alkaline Phosphatase Increase - Activity Score (Hepatotoxicity [2]) | Alkaline Phosphatase Increase - Index Value (Hepatotoxicity [2]) | Alkaline Phosphatase Increase - Number of Reports (Hepatotoxicity [2]) | SGOT Increase - Activity Score (Hepatotoxicity [3]) | SGOT Increase - Index Value (Hepatotoxicity [3]) | SGOT Increase - Number of Reports (Hepatotoxicity [3]) | SGPT Increase - Activity Score (Hepatotoxicity [4]) | SGPT Increase - Index Value (Hepatotoxicity [4]) | SGPT Increase - Number of Reports (Hepatotoxicity [4]) | LDH Increase - Activity Score (Hepatotoxicity [5]) | LDH Increase - Index Value (Hepatotoxicity [5]) | LDH Increase - Number of Reports (Hepatotoxicity [5]) | GGT Increase - Activity Score (Hepatotoxicity [6]) | GGT Increase - Index Value (Hepatotoxicity [6]) | GGT Increase - Number of Reports (Hepatotoxicity [6])
O=C(O)CCCCCCCC(=O)O [AZELAIC ACID] | 0 | 0 | Inactive | Inactive | 0 | < 4 | Inactive | 0 | < 4 | Inactive | 0 | < 4 | Inactive | 0 | < 4 | Inactive | 0 | < 4
CN1CCCC(n2nc(Cc3ccc(Cl)cc3)c3ccccc3c2=O)CC1 (stereo not drawn) [AZELASTINE] | 0 | 0 | Inactive | Inactive | 0 | < 4 | Inactive | 0 | < 4 | Inactive | 0 | < 4 | Inactive | 0 | < 4 | Inactive | 0 | < 4
CC[C@H]1OC(=O)[C@H](C)[C@@H](O[C@H]2C[C@@](C)(OC)[C@@H](O)[C@H](C)O2)[C@H](C)[C@@H](O[C@@H]2O[C@H](C)C[C@H](N(C)C)[C@H]2O)[C@](C)(O)C[C@@H](C)CN(C)[C@H](C)[C@@H](O)[C@]1(C)O [AZITHROMYCIN] | 0 | 0 | Inactive | Inactive | 1 | >= 4 | Inactive | 2.9 | >= 4 | Inactive | 2.3 | >= 4 | Inactive | 0.8 | >= 4 | Inactive | 1 | >= 4
C[C@H]1[C@H](NC(=O)/C(=N\OC(C)(C)C(=O)O)c2csc(N)n2)C(=O)N1S(=O)(=O)O [AZTREONAM] | 1 | 2 | Inactive | Active | 6.9 | >= 4 | Marginally Active | 3.2 | >= 4 | Marginally Active | 3.8 | >= 4 | Inactive | 0.6 | < 4 | Inactive | 0.6 | < 4
CCOC(=O)OC(C)OC(=O)[C@@H]1N2C(=O)[C@@H](NC(=O)[C@H](N)c3ccccc3)[C@H]2SC1(C)C (stereo partly drawn) [BACAMPICILLIN] | 0 | 0 | Inactive | Inactive | 0 | < 4 | Inactive | 0 | < 4 | Inactive | 0 | < 4 | Inactive | 0 | < 4 | Inactive | 0 | < 4
C[C@H]1C[C@H]2[C@@H]3CCC4=CC(=O)C=C[C@]4(C)[C@@]3(Cl)[C@@H](O)C[C@]2(C)[C@@]1(O)C(=O)CO [BECLOMETHASONE] | 0 | 0 | Inactive | Inactive | 0 | < 4 | Inactive | 0 | < 4 | Inactive | 0 | < 4 | Inactive | 0 | < 4 | Inactive | 0 | < 4
